Test results from patent publication US20040152903A1, “6-chloro-3-pyridylmethylpropylamine derivatives, preparation process thereof and bactericides” (priority 2004, published 2004).

Tests used:
wheat powdery mildew [1] = assay: Test of control effect on wheat powdery mildew; type: in vivo; set-up: Control Value: scale not given here; details: wettable powder 125 mg/l, 100 liters/10 a, wheat seedlings (Nourin 64), examined 9th to 14th day after inoculation
Description: (Test of Control Effect on Wheat Powdery Mildew) Wettable powders were prepared from compounds of the present invention I-1 to I-27 and comparative compounds (a) to (d), (m-1) and (m-3). The obtained wettable powder was diluted and suspended with water to provide the predetermined concentration (125 mg/l), and was sprinkled onto seedlings of wheat (variety: “Nourin 64”) at the first to the second leaf period which were cultivated using square plastic pots (size: 6.4 cm×6.4 cm) in a rate of 100 liters/10 a (ares). After drying the sprinkled leaves with air, a suspension of wheat powdery mildew spores taken from infected leaves was inoculated by spraying onto the sprinkled leaves. They were supervised in a green house (temperature: 20 to 24° C., relative humidity: 20 to 70 RH). On the 9th to 14th day after the inoculation, the infection degree was examined according to the following scale and the control value of each compound was calculated by the following calculation equation 1. [table]

Microdochium nivale = assay: Antifungal activity test (PDA plate, hypha extension inhibition); type: cell-based; details: 3.2 ppm in PDA culture medium
Description: (§1) (Antifungal Activity Test against Various Pathogenic Fungi) For each of the compounds I-1 to 27 of the present invention and the comparative compounds (a) to (d), (m-1) and (m-3), 20 mg was weighed and dissolved in 2 ml of dimethylsulfoxide, and a double dilution row in 10 steps was prepared by further using dimethylsulfoxide. A 0.6 ml portion of these solutions was each added to 60 ml of a PDA culture medium (potato-dextrose-agar culture medium) at about 60° C., they were well mixed in a 100 ml Erlenmeyer flask, the solution was poured into a schale and was solidified, the plate culture media containing the compounds according to the present invention with final concentrations of 100, 50.0, 25.0, 12.5, 6.3, 3.2, 1.6, 0.8, 0.4 and 0.2 mg/l were prepared. On the other hand, the specimen bacteria cultured on the plate culture media beforehand was punched by a 4 mm diameter cork borer, and was inoculated on the plate culture media containing the aforementioned chemicals. After the inoculation, the bacteria were cultured at the optimum growth temperature of each bacterium for 1 to 7 days (for this optimum growth temperature, LIST OF CULTURES 1996 Microorganisms 10th edition published by Fermentation Research Institute (Foundation) can be referred to.), and the growth of the bacteria was measured by the diameter of a colony. […]

Venturia inaequalis = assay: as above; type: cell-based; details: 3.2 ppm in PDA culture medium
Description: as §1

wheat powdery mildew [2] = assay: Permeable mobility fungicidal effect test in leaf section of wheat powdery mildew; type: in vivo; details: length of non-contracted area relative to compound (m-2); 200 mg/l, 0.5 μl applied to wheat leaf (Abukumawase)
Description: (Permeable Mobility Fungicidal Effect Test in Leaf Section of Wheat Powdery Mildew) In the test example 4, permeable mobility fungicidal effect test was performed on the leaf section of wheat powdery mildew with regard to the compounds I-1 to 27 according to the present invention and the comparative compounds (a) to (d), and (m-1) to (m-3) with the method described later. <Test Method> The compound in the form of a wettable powder obtained by Formulation 2 or the like was diluted and suspended with water to a predetermined concentration (200 mg/l), and 0.5 μl of the suspension was applied to a 2 to 3 cm leaf portion from the root of the three leaves of the 4th to 4.5th leaf period wheat (variety: Abukumawase) cultured by using a square plastic pot (size: 6.4 cm×6.4 cm). After these wheat leaves were subject to still standing in a glass house (temperature: 20 to 24° C., relative humidity: 20 to 70 RH) for one day, the spores of wheat powdery mildew were inoculated over the leaves by sprinkling the same with a brush from an infected leaf, a disease was contracted in the same glass house. The length of a non-contracted area generated from the applied portion to the direction of the leaf top was measured, and a relative mobility to the compound (m-2) was calculated with the following calculation […] by using the comparative compound (m-2) as a standard compound. Relative mobility=(Length of non-contracted area in each chemical section (cm)/Length of non-contracted area of compound (m-2) (cm)) (Equation 4)

Row | Compound | Control Value (wheat powdery mildew [1]) | Growth Inhibition M.n (3.2) (Microdochium nivale) | Growth Inhibition V.i (3.2) (Venturia inaequalis) | Relative Mobility (wheat powdery mildew [2])
1 | CC(Cc1ccc(C(F)(F)F)c(F)c1F)CN(C)Cc1ccc(Cl)nc1 (centres unmarked) [Compound I-10] | 100 | 4 (Hypha extension inhibition rate of from 70% to less than 90%) | 4 (Hypha extension inhibition rate of from 70% to less than 90%) | 3
2 | CC(Cc1ccc2c(c1)OC(F)(F)O2)CN(C)Cc1ccc(Cl)nc1 (centres unmarked) [Compound I-24] | 100 | 4 (Hypha extension inhibition rate of from 70% to less than 90%) | 4 (Hypha extension inhibition rate of from 70% to less than 90%) | 6
